In PubChem BioAssay AID330 (DTP/NCI, 2004):
Several values for one entry are separate records, joined by “and”; a condition that tells them apart may be missing. Equal values may be shown once. Toxic doses and inconclusive results are not listed.

Test system: P388 leukemia ip, CD2F1 mice, survival T/C
Test: NCI In Vivo Anticancer Drug Screen. Data for tumor model P388 Leukemia (intraperitoneal) in CD2F1 (CDF1) mice
Conditions: endpoint: median survival time, higher = longer survival
Method in brief: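 Mice carrying the transplanted tumor received test compound or vehicle. Survival was recorded in each group, and the value is the treated-group measurement divided by that of the vehicle-treated control group.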

[1] = dose: 25.0 mg/kg/injection, schedule: Q01DX009 (ip), vehicle: saline with Tween-80
[2] = dose: 60.0 mg/kg/injection, schedule: Q01DX005 (ip), vehicle: Klucel (hydroxypropylcellulose) (HPC)
[3] = dose: 120.0 mg/kg/injection, schedule: Q01DX005 (ip), vehicle: Klucel (hydroxypropylcellulose) (HPC)
[4] = dose: 240.0 mg/kg/injection, schedule: Q01DX005 (ip), vehicle: Klucel (hydroxypropylcellulose) (HPC)
[5] = dose: 60.0 mg/kg/injection, schedule: Q01DX005 (ip), vehicle: saline with Tween-80
[6] = dose: 120.0 mg/kg/injection, schedule: Q01DX005 (ip), vehicle: saline with Tween-80
[7] = dose: 240.0 mg/kg/injection, schedule: Q01DX005 (ip), vehicle: saline with Tween-80
[8] = dose: 50.0 mg/kg/injection, schedule: Q04DX003 (ip), vehicle: saline with Tween-80
[9] = dose: 100.0 mg/kg/injection, schedule: Q04DX003 (ip), vehicle: saline with Tween-80
[10] = dose: 50.0 mg/kg/injection, schedule: Q01DX009 (ip), vehicle: Klucel (hydroxypropylcellulose) (HPC)
[11] = dose: 100.0 mg/kg/injection, schedule: Q01DX009 (ip), vehicle: Klucel (hydroxypropylcellulose) (HPC)
[12] = dose: 200.0 mg/kg/injection, schedule: Q01DX009 (ip), vehicle: Klucel (hydroxypropylcellulose) (HPC)
[13] = dose: 50.0 mg/kg/injection, schedule: Q01DX009 (ip), vehicle: saline with Tween-80
[14] = dose: 100.0 mg/kg/injection, schedule: Q01DX009 (ip), vehicle: saline with Tween-80
[15] = dose: 200.0 mg/kg/injection, schedule: Q01DX009 (ip), vehicle: saline with Tween-80

CC1(C)N=C(N)N=C(N)N1c1ccc(CCCCc2cccc(S(=O)(=O)F)c2)c(Cl)c1
T/C (dose: 0.11 mg/kg/injection, schedule: Q01DX009 (ip), vehicle: saline with Tween-80): 107 % of control | T/C (dose: 0.17 mg/kg/injection, schedule: Q01DX009 (ip), vehicle: saline with Tween-80): 111 % of control | T/C (dose: 0.25 mg/kg/injection, schedule: Q01DX009 (ip), vehicle: saline with Tween-80): 115 % of control | T/C (dose: 0.66 mg/kg/injection, schedule: Q01DX009 (ip), vehicle: saline with Tween-80): 107 % of control | T/C (dose: 1.0 mg/kg/injection, schedule: Q01DX009 (ip), vehicle: saline with Tween-80): 109 % of control | T/C (dose: 3.3 mg/kg/injection, schedule: Q01DX009 (ip), vehicle: saline with Tween-80): 160 % of control | T/C (dose: 5.0 mg/kg/injection, schedule: Q01DX009 (ip), vehicle: saline with Tween-80): 150 % of control | T/C (dose: 6.25 mg/kg/injection, schedule: Q01DX009 (ip), vehicle: saline with Tween-80): 150 % of control | T/C (dose: 7.5 mg/kg/injection, schedule: Q01DX009 (ip), vehicle: saline with Tween-80): 155 % of control | T/C (dose: 8.0 mg/kg/injection, schedule: Q01DX009 (ip), vehicle: saline with Tween-80): 154 % of control | T/C (dose: 8.0 mg/kg/injection, schedule: Q01DX009 (ip), vehicle: saline): 157 % of control | T/C (dose: 12.0 mg/kg/injection, schedule: Q01DX009 (ip), vehicle: saline with Tween-80): 163 % of control | T/C (dose: 12.0 mg/kg/injection, schedule: Q01DX009 (ip), vehicle: saline): 154 % of control | T/C (dose: 12.5 mg/kg/injection, schedule: Q01DX009 (ip), vehicle: saline with Tween-80): 150 % of control | T/C (dose: 18.0 mg/kg/injection, schedule: Q01DX009 (ip), vehicle: saline with Tween-80): 150 % of control | T/C (dose: 18.0 mg/kg/injection, schedule: Q01DX009 (ip), vehicle: saline): 181 % of control | T/C [1]: 95 % of control | T/C (dose: 27.0 mg/kg/injection, schedule: Q01DX009 (ip), vehicle: saline with Tween-80): 150 % of control

O=c1[nH]c2cc(Cl)ccc2nc1/C=C(\O)c1ccccn1
T/C [2]: 92 % of control | T/C [3]: 91 % of control | T/C [4]: 93 % of control

O=c1[nH]nc(NC2Nc3ccccc3N2)c2ccccc12
T/C [5]: 97 % of control | T/C [6]: 96 % of control | T/C [7]: 96 % of control

CNC(=O)Oc1cccc(NC(=S)SC)c1
T/C (dose: 12.5 mg/kg/injection, schedule: Q04DX003 (ip), vehicle: saline with Tween-80): 106 % of control | T/C (dose: 25.0 mg/kg/injection, schedule: Q04DX003 (ip), vehicle: saline with Tween-80): 104 % of control | T/C [8]: 100 % of control | T/C [9]: 104 % of control

O=C(c1ccccc1)c1ccccc1-c1nc2ccccc2c(=O)o1
T/C [10]: 100 % of control | T/C [11]: 95 % of control | T/C [12]: 109 % of control

CSc1nsc(SC)c1-c1ccc(Cl)cc1
T/C [10]: 99 % of control | T/C [11]: 100 % of control | T/C [12]: 92 % of control

COc1cc(C2c3cc4c(cc3OC3(N5CCCC5)CCCCC23)OCO4)cc(OC)c1OC (stereo not drawn)
T/C [2]: 99 % of control | T/C [3]: 93 % of control | T/C [4]: 96 % of control

CCCCOC1OCN(C(C)(C)C)CC1(C)C (stereo not drawn)
T/C [1]: 101 % of control | T/C [13]: 100 % of control | T/C [14]: 113 % of control | T/C [15]: 111 % of control

Cc1c/c(=N\O)c2c(=O)ccoc2n1O
T/C (dose: 50.0 mg/kg/injection, schedule: Q01DX009 (ip), vehicle: suspension in saline): 99 % of control | T/C (dose: 100.0 mg/kg/injection, schedule: Q01DX009 (ip), vehicle: suspension in saline): 98 % of control | T/C (dose: 200.0 mg/kg/injection, schedule: Q01DX009 (ip), vehicle: suspension in saline): 97 % of control

CCN(CC)c1c(C)c(C(=O)OC)nn1-c1ccccc1
T/C [5]: 107 % of control | T/C [6]: 104 % of control | T/C [7]: 96 % of control

CCOC(=O)C1=NN(c2ccccc2)C(=O)C1c1ccccc1 (stereo not drawn)
T/C [13]: 90 % of control | T/C [14]: 93 % of control | T/C [15]: 107 % of control

CCOc1ccc(Cc2nc3c([nH]2)c(=O)n(C)c(=O)n3C)cc1OCC
T/C [8]: 104 % of control | T/C [9]: 103 % of control | T/C (dose: 200.0 mg/kg/injection, schedule: Q04DX003 (ip), vehicle: saline with Tween-80): 113 % of control and 95 % of control
